Assays:
[1] = biological target: T1, human serum albumin (HSA) (Homo sapiens, UniProt P02768); assay: Protein binding on chemically bonded HSA column (Chiralpak-HSA); details: remeasured in this study, pH 7.4
Description: Mobile phase A was 50 mM ammonium acetate adjusted to pH 7.4 and mobile phase B was 2-propanol. The flow rate was 1.5 mL/min and the run time was 6 min. The 2-propanol gradient was applied from 0 to 35% from 0 to 3.00 min and kept at 35% until 4.00 min.

[2] = human
[3] = IAM chromatography on new IAM.PC.DD2 columns (gradient HPLC, CHI (IAM)); assay type: physicochemical; set-up: key to CHI (IAM) “new” / P20511-014-3 CHI (IAM): CHI (IAM) from retention times calibrated to predefined CHI standards; details: for P20511-014-3 CHI (IAM): new IAM.PC.DD2 column batch P20511-014-3, pH 7.4; for R20511-014-3 CHI (IAM): new IAM.PC.DD2 column batch R20511-014-3, pH 7.4; for CHI (IAM) deviation between reference and new IAM.PC.DD2 columns / CHI (IAM) “new”: system suitability test compounds; for CHI (IAM) “new”: new IAM.PC.DD2 columns, pH 7.4
Description: The IAM binding was measured using IAM.PC.DD2 HPLC columns (Regis Technologies, Inc., IL, USA) with dimensions of 100 x 4.6 mm, particle size 10 μm with 300 Å pore size.
Two batches of IAM.PC.DD2 columns were studied (R20511-014-3 and P20511-014-3) that had been prepared using the new batches of silica support.
The retention times were standardized using the IAM calibration mixture, containing octanophenone, heptanophenone, hexanophenone, valerophenone, butyrophenone, propiophenone, acetophenone, acetanilide and paracetamol. The retention times of the compounds were plotted against the isocratically determined and predefined CHI (IAM) values listed in Table 1. The slope and intercept of the obtained straight line was used to calculate the CHI IAM values of new compounds.

[4] = biological target: T1, human serum albumin (HSA); details: cited from earlier work
[5] = cited from earlier work; for CHI (IAM) from ref [13]: reference CHI (IAM), old columns

T1 sequence (P02768 25-609): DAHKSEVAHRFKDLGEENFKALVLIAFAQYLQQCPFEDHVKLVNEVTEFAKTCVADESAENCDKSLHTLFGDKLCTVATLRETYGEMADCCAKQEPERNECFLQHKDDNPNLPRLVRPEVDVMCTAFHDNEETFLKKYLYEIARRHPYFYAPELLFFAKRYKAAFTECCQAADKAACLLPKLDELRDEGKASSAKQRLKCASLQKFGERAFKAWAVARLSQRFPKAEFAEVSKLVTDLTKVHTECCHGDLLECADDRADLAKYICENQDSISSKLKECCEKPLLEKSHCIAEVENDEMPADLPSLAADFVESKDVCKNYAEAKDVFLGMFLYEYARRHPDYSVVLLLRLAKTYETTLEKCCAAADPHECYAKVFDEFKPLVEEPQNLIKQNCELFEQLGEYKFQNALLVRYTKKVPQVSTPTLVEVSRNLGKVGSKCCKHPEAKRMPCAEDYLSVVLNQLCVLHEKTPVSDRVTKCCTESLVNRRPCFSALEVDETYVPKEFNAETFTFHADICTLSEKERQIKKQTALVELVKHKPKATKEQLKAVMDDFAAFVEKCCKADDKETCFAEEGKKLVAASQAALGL

Compound | log K HSA [1] | reference log Vdss [2] | P20511-014-3 CHI (IAM) [3] | R20511-014-3 CHI (IAM) [3] | log K HSA from ref [13] [4] | CHI (IAM) from ref [13] [5] | CHI (IAM) deviation between reference and new IAM.PC.DD2 columns [3] | CHI (IAM) “new” [3] | outlier in correlation of reference CHI (IAM) with CHI (IAM) on column R20511-014-3 ([3]; lower CHI (IAM) on new batches, outlier if difference greater than 7.2 CHI IAM units) | CHI (IAM) ([5]; previously published, IAM column manufactured 2004-2012)
C=CCOc1ccc(CC(=O)O)cc1Cl [Alclofenac] | 5.40 | -1.1 | 21.63 | 20.47 | 5.11 | 17.80 |  |  |  | 
NC(=O)N1c2ccccc2C=Cc2ccccc21 [Carbamazepine] | 1.81 | -0.09 | 27.07 | 27.18 | 1.99 | 26.50 | very similar | 27.0 |  | 
CC1=NS(=O)(=O)c2cc(Cl)ccc2N1 [Diazoxide] | 5.58 | -0.16 | 23.44 | 23.39 | 5.42 | 24.70 |  |  |  | 
C#C[C@]1(O)CC[C@H]2[C@@H]3CCc4cc(O)ccc4[C@H]3CC[C@@]21C [Ethinyl estradiol] | 0.50 | 0.39 | 45.23 | 45.30 | 0.46 | 46.80 |  |  |  | 
NC(N)=Nc1nc(CSCCC(N)=NS(N)(=O)=O)cs1 [Famotidine] | 3.43 | -0.06 | 16.08 | 16.82 | 1.39 | 15.70 |  |  |  | 
CC(C(=O)O)c1cccc(Oc2ccccc2)c1 (centres unmarked) [Fenoprofen] | 2.32 | -1.27 | 28.26 | 27.17 | 1.58 | 17.20 |  |  |  | 
CC(C)(C)NC(=O)[C@H]1CC[C@H]2[C@@H]3CC[C@H]4NC(=O)C=C[C@]4(C)[C@H]3CC[C@]12C [Finasteride] | 3.55 | 0.3 | 37.17 | 37.15 | 3.62 |  |  |  |  | 
Cc1onc(-c2c(F)cccc2Cl)c1C(=O)N[C@@H]1C(=O)N2[C@@H]1SC(C)(C)[C@@H]2C(=O)O [Floxacillin] | 0.65 | -0.56 | 24.59 | 23.76 | 0.56 | 23.40 |  |  |  | 
CC(C(=O)O)c1ccc(-c2ccccc2)c(F)c1 (centres unmarked) [Flurbiprofen] | 4.01 | -1.56 | 30.89 | 30.23 | 1.26 | 26.80 |  |  |  | 
Cc1ccc(C)c(OCCCC(C)(C)C(=O)O)c1 [Gemfibrozil] | 4.05 | -1.34 | 34.53 | 33.70 | 3.32 | 32.90 |  |  |  | 
COC1=CC(=O)C[C@@H](C)[C@]12Oc1c(Cl)c(OC)cc(OC)c1C2=O [Griseofulvin] | 0.80 | 0.12 | 30.98 | 31.06 | 0.77 | 33.10 |  |  |  | 
NS(=O)(=O)c1cc2c(cc1Cl)NCNS2(=O)=O [Hydrochlorothiazide] | 1.05 | -0.13 | 13.08 | 13.04 | 0.92 | 15.90 |  |  |  | 
COC(=O)C1=C(C)NC(C)=C(C(=O)OC(C)C)C1c1cccc2nonc12 (centres unmarked) [Isradipine] | 3.30 | 0.13 | 39.16 | 39.11 | 2.9 | 40.00 |  |  |  | 
C[C@H]1C[C@@H]2[C@H]([C@@H](O)C[C@@]3(C)[C@H]2CC[C@]3(O)C(=O)CO)[C@@]2(C)C=CC(=O)C=C12 [Methylprednisolone] | 0.28 | 0.16 | 30.77 | 30.91 | 0.76 | 32.10 |  |  |  | 
Cc1ncc([N+](=O)[O-])n1CCO [Metronidazole] | 0.72 | -0.25 | -3.24 | -2.71 | 0.66 | -3.30 |  |  |  | 
Nc1cc(N2CCCCC2)nc(N)[n+]1[O-] [Minoxidil] | 3.41 | -0.04 | 16.08 | 15.93 | 3.16 | 19.00 |  |  |  | 
CC(C)(C)NCC(O)COc1cccc2c1CC(O)C(O)C2 (centres unmarked) [Nadolol] | 3.55 | -0.33 | 19.23 | 19.89 | 2.93 | 20.20 |  |  |  | 
COC(=O)C1=C(C)NC(C)=C(C(=O)OCCN(C)Cc2ccccc2)C1c1cccc([N+](=O)[O-])c1 (centres unmarked) [Nicardipine] | 1.95 | 0.47 | 43.73 | 43.82 | 1.41 | 45.90 | very similar | 45.0 |  | 
CCOC(=O)C1=C(C)NC(C)=C(C(=O)OC)C1c1cccc([N+](=O)[O-])c1 (centres unmarked) [Nitrendipine] | 2.70 | 0.16 | 39.19 | 39.06 | 2.35 | 40.50 |  |  |  | 
CC(=O)CCCCn1c(=O)c2c(ncn2C)n(C)c1=O [Pentoxifylline] | 4.03 | -0.1 | 13.87 | 14.04 | 3.27 | 12.00 |  |  |  | 
O=C1NC(=O)C(c2ccccc2)(c2ccccc2)N1 [Phenytoin] | 0.63 | 0.03 | 30.20 | 30.18 | 0.54 | 31.60 |  |  |  | 
CC(C)NCC(O)COc1cccc2[nH]ccc12 (centres unmarked) [Pindolol] | 2.40 | 0.85 | 25.31 | 25.69 | 1.81 | 42.00 |  |  | outliers | 
C[C@]12C=CC(=O)C=C1CC[C@@H]1[C@@H]2C(=O)C[C@@]2(C)[C@H]1CC[C@]2(O)C(=O)CO [Prednisone] | 0.42 | 0.05 | 25.13 | 25.25 | 0.62 |  |  |  |  | 
CCC1(c2ccccc2)C(=O)NCNC1=O [Primidone] | 4.01 | -0.15 | 10.49 | 10.31 | 3.44 | 8.90 |  |  |  | 
CCCN(CCC)S(=O)(=O)c1ccc(C(=O)O)cc1 [Probenecid] | 0.49 | -0.75 | 24.38 | 23.45 | 0.76 | 20.10 |  |  |  | 
CC(O)Cn1cnc2c1c(=O)n(C)c(=O)n2C (centres unmarked) [Proxyphylline] | 3.02 | -0.85 | 10.89 | 10.05 | 1.97 |  |  |  |  | 
Nc1ccc(S(=O)(=O)Nc2ccc(Cl)nn2)cc1 [Sulfachlorpyridazine] | 2.20 | -0.76 | 10.83 | 10.08 | 2.04 | 6.00 |  |  |  | 
COc1cnc(NS(=O)(=O)c2ccc(N)cc2)nc1 [Sulfameter] | 2.44 | -0.61 | 7.09 | 6.92 | 4.09 | 3.70 |  |  |  | 
COc1ccc(NS(=O)(=O)c2ccc(N)cc2)nn1 [Sulfamethoxypyridazine] | 4.27 | -0.59 | 11.16 | 11.11 | 2.33 |  |  |  |  | 
Cc1cc(C)nc(NS(=O)(=O)c2ccc(N)cc2)n1 [Sulphadimidine] | 1.72 | 0.22 | 11.09 | 10.89 | 0.75 | 34.55 |  |  |  | 34.6
